Reference: the NIST ThermoML archive (doi:10.1021/acs.jced.5b00367)
“And” between values parts separate entries of the source, which are not always exact repeats. Identical values can stand only once.

Experiment: wn = mass fraction of the nth substance listed
Details: 101 kPa, Liquid, Alternating current cell with electrodes, w1 = 0.01

CCCCCCCCCCCC[N+](CC)(CC)CCCCCCCCCCCC.[Br-] [didodecyldiethylammonium bromide] + O
Details	electrical conductivity
279.25 K	0.00329 S/m
279.35 K	0.00328 S/m
279.45 K	0.00328 S/m
279.55 K	0.00328 S/m
279.65 K	0.00329 S/m
279.75 K	0.00331 S/m and 0.00332 S/m
279.85 K	0.00335 S/m
279.95 K	0.00338 S/m and 0.00343 S/m
280.15 K	0.00345 S/m
280.25 K	0.00348 S/m
280.35 K	0.00355 S/m
280.45 K	0.00357 S/m
280.55 K	0.00359 S/m
280.65 K	0.0036 S/m
280.75 K	0.00364 S/m
280.85 K	0.0037 S/m and 0.00371 S/m
280.95 K	0.00378 S/m
281.05 K	0.00381 S/m
281.15 K	0.00381 S/m
281.25 K	0.00371 S/m
281.35 K	0.00377 S/m
281.45 K	0.00374 S/m
281.55 K	0.00378 S/m
281.65 K	0.00378 S/m
281.85 K	0.00378 S/m
281.95 K	0.00374 S/m
282.05 K	0.00366 S/m
282.25 K	0.00373 S/m
282.45 K	0.00366 S/m
282.65 K	0.00365 S/m
282.75 K	0.00364 S/m
282.85 K	0.00356 S/m
283.05 K	0.00356 S/m
283.15 K	0.0036 S/m
283.35 K	0.0034 S/m
283.45 K	0.0036 S/m
283.55 K	0.00354 S/m
283.75 K	0.0035 S/m
283.85 K	0.00351 S/m
283.95 K	0.00346 S/m
284.05 K	0.0035 S/m
284.25 K	0.00354 S/m
284.35 K	0.00354 S/m
284.55 K	0.0034 S/m
284.65 K	0.00355 S/m
284.75 K	0.0035 S/m
284.85 K	0.00345 S/m
284.95 K	0.00352 S/m
285.05 K	0.00342 S/m
285.15 K	0.00344 S/m
285.25 K	0.0035 S/m
285.35 K	0.00344 S/m
285.45 K	0.00344 S/m
285.55 K	0.00342 S/m
285.65 K	0.00343 S/m
285.75 K	0.0034 S/m
285.85 K	0.00342 S/m
285.95 K	0.00343 S/m
286.05 K	0.00348 S/m
286.15 K	0.0034 S/m
286.25 K	0.00342 S/m
286.35 K	0.00341 S/m
286.45 K	0.00343 S/m
286.55 K	0.00339 S/m
286.65 K	0.0034 S/m
286.75 K	0.00347 S/m
286.95 K	0.00347 S/m
287.05 K	0.00347 S/m
287.15 K	0.00344 S/m
287.25 K	0.00341 S/m
287.35 K	0.00345 S/m
287.45 K	0.00347 S/m
287.55 K	0.00345 S/m
287.65 K	0.00341 S/m
287.75 K	0.00342 S/m
287.85 K	0.00343 S/m
287.95 K	0.00348 S/m
288.05 K	0.00344 S/m
288.15 K	0.00345 S/m
288.25 K	0.00342 S/m
288.45 K	0.0035 S/m
288.55 K	0.00357 S/m
288.65 K	0.00345 S/m
288.75 K	0.0035 S/m
288.85 K	0.00345 S/m
288.95 K	0.00346 S/m
289.05 K	0.00344 S/m
289.15 K	0.00349 S/m
289.25 K	0.00346 S/m
289.35 K	0.00352 S/m
289.45 K	0.00346 S/m
289.55 K	0.00347 S/m
289.65 K	0.00352 S/m
289.75 K	0.00352 S/m
289.85 K	0.00352 S/m
289.95 K	0.00351 S/m
290.05 K	0.00357 S/m
290.15 K	0.00348 S/m
290.25 K	0.0035 S/m
290.35 K	0.00347 S/m
290.55 K	0.00355 S/m
290.65 K	0.00364 S/m
290.75 K	0.00356 S/m
290.85 K	0.00359 S/m
290.95 K	0.0036 S/m
291.05 K	0.00358 S/m
291.15 K	0.00361 S/m
291.25 K	0.00357 S/m
291.35 K	0.00362 S/m
291.45 K	0.0036 S/m
291.55 K	0.00366 S/m
291.65 K	0.00359 S/m
291.75 K	0.0036 S/m
291.85 K	0.00363 S/m
291.95 K	0.00362 S/m
292.05 K	0.00364 S/m
292.15 K	0.00366 S/m
292.25 K	0.00366 S/m
292.35 K	0.00367 S/m
292.45 K	0.00362 S/m
292.55 K	0.00374 S/m
292.65 K	0.00369 S/m
292.75 K	0.00367 S/m
292.85 K	0.00372 S/m
292.95 K	0.00369 S/m
293.05 K	0.00378 S/m
293.15 K	0.00377 S/m
293.25 K	0.00376 S/m
293.35 K	0.00376 S/m
293.45 K	0.0037 S/m
293.55 K	0.00375 S/m
293.65 K	0.00376 S/m
293.75 K	0.00372 S/m
293.85 K	0.00383 S/m
293.95 K	0.00378 S/m
294.05 K	0.0038 S/m
294.15 K	0.00381 S/m
294.25 K	0.0038 S/m
294.35 K	0.00381 S/m
294.45 K	0.00383 S/m
294.55 K	0.00382 S/m
294.65 K	0.00384 S/m
294.75 K	0.00385 S/m
294.85 K	0.00386 S/m
294.95 K	0.00387 S/m
295.05 K	0.00389 S/m
295.15 K	0.00389 S/m
295.25 K	0.00386 S/m
295.35 K	0.00396 S/m
295.45 K	0.00395 S/m
295.55 K	0.00387 S/m
295.65 K	0.00396 S/m
296.45 K	0.00389 S/m
296.55 K	0.00397 S/m
296.75 K	0.00394 S/m
297.45 K	0.00396 S/m
297.85 K	0.00401 S/m
298.15 K	0.00402 S/m
298.55 K	0.00399 S/m
298.75 K	0.00405 S/m
298.95 K	0.00402 S/m
299.15 K	0.00407 S/m
299.55 K	0.00409 S/m
299.75 K	0.00406 S/m
300.05 K	0.00407 S/m
300.45 K	0.00419 S/m
300.75 K	0.00428 S/m
300.95 K	0.00431 S/m
301.55 K	0.00453 S/m
301.85 K	0.00472 S/m
302.15 K	0.0048 S/m
302.35 K	0.005 S/m
302.75 K	0.00518 S/m
303.05 K	0.00543 S/m
303.45 K	0.00568 S/m
303.75 K	0.00609 S/m
304.55 K	0.00686 S/m
304.85 K	0.00713 S/m
305.15 K	0.00765 S/m
305.55 K	0.00812 S/m
305.85 K	0.00833 S/m
306.05 K	0.00891 S/m
306.35 K	0.00946 S/m
307.35 K	0.0136 S/m
307.55 K	0.0157 S/m
307.95 K	0.016 S/m
308.25 K	0.0159 S/m
308.35 K	0.016 S/m
308.75 K	0.0162 S/m
308.95 K	0.0165 S/m
309.25 K	0.0167 S/m
309.75 K	0.0169 S/m
310.05 K	0.0171 S/m
310.15 K	0.0172 S/m
310.45 K	0.0175 S/m
310.65 K	0.0177 S/m
310.85 K	0.0179 S/m
311.05 K	0.018 S/m
311.25 K	0.0181 S/m
311.45 K	0.0183 S/m
311.65 K	0.0184 S/m
311.75 K	0.0185 S/m
311.85 K	0.0187 S/m
311.95 K	0.0188 S/m
312.15 K	0.0189 S/m
312.35 K	0.0192 S/m
312.55 K	0.0194 S/m
312.65 K	0.0194 S/m
312.85 K	0.0196 S/m
312.95 K	0.0196 S/m
313.35 K	0.0201 S/m
313.65 K	0.0204 S/m
313.85 K	0.0205 S/m
313.95 K	0.0207 S/m
314.05 K	0.0208 S/m
314.15 K	0.0209 S/m
314.35 K	0.021 S/m
314.45 K	0.0212 S/m
314.65 K	0.0213 S/m
314.75 K	0.0214 S/m
314.85 K	0.0216 S/m
314.95 K	0.0217 S/m
315.05 K	0.0218 S/m
315.15 K	0.0219 S/m
315.25 K	0.022 S/m
315.35 K	0.0222 S/m
